Results as given in patent publication US9468687B2, “Immuno gene therapy for treatment of cancer and hyperproliferative diseases” (priority 2004, dated 2016).

Assays:
[1] = test system: ID8 peritoneal disseminated ovarian tumors; experiment: pIL-12/PPC plus paclitaxel in peritoneal disseminated ovarian tumors; assay type: in vivo, mouse
Description: Intraperitoneal IL-12 gene therapy was combined with paclitaxel chemotherapy to enhance the therapeutic response to disseminated ovarian tumors in mice. The mice were injected intraperitoneally with 5×10^6 ID8 cells in a volume of 500 μl. The treatments were started when tumor burden (mouse weight) reached approximately 20 grams (˜21 days after injection of cells). The mice were injected intraperitoneally with 25 μg of pmIL-12 complexed with PPC at a 11:1 N:P ratio in a volume of 500 μl. The gene treatment was repeated after 7 days constituting a total of two injections (Day 1, 8) per the study. Paclitaxel (Taxol®) was administered only once (Day 0) by intravenous injection at a dose of 8 mg/kg dose in an injection volume of 250 μL. For combination therapy, both gene therapy and chemotherapy treatments were given as described above. Animals were periodically weighed to assess the effect of gene treatment on tumor burden. […] The inhibition of tumor burden by pmIL-12/PPC complexes was slightly higher than that of paclitaxel.

Renca tumors = conditions: cited from earlier work
CT26 tumors = conditions: cited from earlier work
[2] = test system: SCCVII squamous cell carcinoma; experiment: Subcutaneous squamous cell carcinoma (SCCVII) tumor growth; assay type: in vivo, mouse; conditions: pmIL-12/PPC 25 μg intratumoral weekly x4, two injections
Description: The effect of local administration of pIL-12/PPC complexes on the growth of subcutaneously implanted squamous cell (SCCVII) carcinoma was examined. 4×10^5 squamous carcinoma cells in 100 μl were implanted sc on the right flank of female Female CH3 mice (6-9 weeks, 17-22 grams) The mIL-12 plasmid was complexed with PPC at a 11:1 N:P ratio and administered locally into the tumors at a DNA dose of 25 μg in an injection volume of 50 μl once every week for four weeks starting ˜11 days after tumor implantation. Treatment groups of 12 mice were used and tumor growth was monitored twice per week using caliper measurement.
For combination therapy both gene therapy and chemotherapy treatment were given as described above. Treatment groups of 12 mice were used and tumor growth was monitored twice per week using caliper measurement.

In the case of `CC(=O)O[C@H]1C(=O)[C@@]2(C)[C@H]([C@H](OC(=O)c3ccccc3)[C@]3(O)C[C@H](OC(=O)[C@H](O)[C@@H](NC(=O)c4ccccc4)c4ccccc4)C(C)=C1C3(C)C)[C@]1(OC(C)=O)CO[C@@H]1C[C@@H]2O` [paclitaxel], the peritoneal tumor burden ([1]; pmIL-12 25 μg ip day 1, 8, paclitaxel 8 mg/kg iv day 0) is reported as “tumor reduction” and the survival ([1]; pmIL-12/PPC ip, paclitaxel 8 mg/kg iv) is reported as “improved survival”.
In the case of IFN-α, the tumor rejection (Renca tumors) is listed as 25% and the rejection rate (CT26 tumors) is listed as 0%.
In the case of `O=P1(N(CCCl)CCCl)NCCCO1` (stereo not drawn) [cyclophosphamide], the “tumor growth in combination study” value ([2]; cyclophosphamide 200 mg/kg iv) is reported as “only a partial inhibition of tumor growth” and the “animals that completely rejected the tumor (complete rejection rate)” value ([2]; cyclophosphamide iv) is reported as 10%.
